Assay results published in PubChem BioAssay (NCI).
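Following 48 hours of exposure in 96-well plates, responses at five concentrations were used to interpolate endpoints linearly. Here, GI50 denotes the concentration required for 50% inhibition of growth. TGI denotes the concentration required for complete inhibition of growth.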

Tests used:
Assay in all cases: DTP human tumour cell line panel, 48 h
786-0 renal = system: 786-0 renal
A498 renal = system: A498 renal
A549 NSCLC = system: A549 NSCLC
ACHN renal = system: ACHN renal
BT-549 breast = system: BT-549 breast
CCRF-CEM leukemia = system: CCRF-CEM leukemia
COLO 205 colon = system: COLO 205 colon
DU-145 prostate = system: DU-145 prostate
EKVX NSCLC = system: EKVX NSCLC
HCC-2998 colon = system: HCC-2998 colon
HCT-116 colon = system: HCT-116 colon
HCT-15 colon = system: HCT-15 colon
HL-60(TB) leukemia = system: HL-60(TB) leukemia
HOP-62 NSCLC = system: HOP-62 NSCLC
HOP-92 NSCLC = system: HOP-92 NSCLC
HS 578T breast = system: HS 578T breast
HT29 colon = system: HT29 colon
IGROV1 ovarian = system: IGROV1 ovarian
K-562 leukemia = system: K-562 leukemia
KM12 colon = system: KM12 colon
LOX IMVI melanoma = system: LOX IMVI melanoma
M14 melanoma = system: M14 melanoma
MALME-3M melanoma = system: MALME-3M melanoma
MCF7 breast = system: MCF7 breast
MDA-MB-231 breast = system: MDA-MB-231 breast
MDA-MB-435 = system: MDA-MB-435
MOLT-4 leukemia = system: MOLT-4 leukemia
NCI-H226 lung = system: NCI-H226 lung
NCI-H23 lung = system: NCI-H23 lung
NCI-H460 lung = system: NCI-H460 lung
NCI-H522 lung = system: NCI-H522 lung
NCI/ADR-RES ovarian = system: NCI/ADR-RES ovarian
OVCAR-3 ovarian = system: OVCAR-3 ovarian
OVCAR-4 ovarian = system: OVCAR-4 ovarian
OVCAR-5 ovarian = system: OVCAR-5 ovarian
OVCAR-8 ovarian = system: OVCAR-8 ovarian
PC-3 prostate = system: PC-3 prostate
RPMI-8226 leukemia = system: RPMI-8226 leukemia
RXF 393 renal = system: RXF 393 renal
SF-268 CNS = system: SF-268 CNS
SF-295 CNS = system: SF-295 CNS
SF-539 CNS = system: SF-539 CNS
SK-MEL-2 melanoma = system: SK-MEL-2 melanoma
SK-MEL-28 melanoma = system: SK-MEL-28 melanoma
SK-MEL-5 melanoma = system: SK-MEL-5 melanoma
SK-OV-3 ovarian = system: SK-OV-3 ovarian
SN12C renal = system: SN12C renal
SNB-19 CNS = system: SNB-19 CNS
SNB-75 CNS = system: SNB-75 CNS
SW-620 colon = system: SW-620 colon
T-47D breast = system: T-47D breast
TK-10 renal = system: TK-10 renal
U251 CNS = system: U251 CNS
UACC-257 melanoma = system: UACC-257 melanoma
UACC-62 melanoma = system: UACC-62 melanoma
UO-31 renal = system: UO-31 renal
CAKI-1 renal = system: CAKI-1 renal
SR leukemia = system: SR leukemia

Work on `CN(CCO)c1ccc(N2Cc3ccccc3OC3=C2C(=O)c2c(O)ccc(O)c2C3=O)cn1` yielded a GI50 (786-0 renal) of 245 nM, a TGI (786-0 renal) of 740 nM and a GI50 (A498 renal) of 2170 nM. It also gave a TGI (A498 renal) of 5.66 µM, a GI50 (A549 NSCLC) of 2080 nM and a TGI (A549 NSCLC) of 4.9 µM. It also gave a GI50 (ACHN renal) of 46.2 nM, a TGI (ACHN renal) of 179 nM and a GI50 (BT-549 breast) of 177 nM. It also gave a TGI (BT-549 breast) of 386 nM, a GI50 (CCRF-CEM leukemia) of 56.6 nM and a TGI (CCRF-CEM leukemia) of 548 nM. For the same compound, the GI50 (COLO 205 colon) was 133 nM, the TGI (COLO 205 colon) was 302 nM and the GI50 (DU-145 prostate) was 174 nM. It also gave a TGI (DU-145 prostate) of 323 nM, a GI50 (EKVX NSCLC) of 284 nM and a TGI (EKVX NSCLC) of 1450 nM. For the same compound, the GI50 (HCC-2998 colon) was 249 nM, the TGI (HCC-2998 colon) was 608 nM and the GI50 (HCT-116 colon) was 46.7 nM. It also gave a TGI (HCT-116 colon) of 223 nM, a GI50 (HCT-15 colon) of 127 nM and a TGI (HCT-15 colon) of 484 nM. The GI50 (HL-60(TB) leukemia) was 114 nM, the TGI (HL-60(TB) leukemia) was 406 nM and the GI50 (HOP-62 NSCLC) was 508 nM. The TGI (HOP-62 NSCLC) was 1790 nM, the GI50 (HOP-92 NSCLC) was 223 nM and the TGI (HOP-92 NSCLC) was 505 nM. For the same compound, the GI50 (HS 578T breast) was 418 nM, the TGI (HS 578T breast) was over 100 µM and the GI50 (HT29 colon) was 172 nM. For the same compound, the TGI (HT29 colon) was 0.468 µM, the GI50 (IGROV1 ovarian) was 203 nM and the TGI (IGROV1 ovarian) was 636 nM. The GI50 (K-562 leukemia) was 75.9 nM, the TGI (K-562 leukemia) was over 100 µM and the GI50 (KM12 colon) was 387 nM. The TGI (KM12 colon) was 1630 nM, the GI50 (LOX IMVI melanoma) was 114 nM and the TGI (LOX IMVI melanoma) was 330 nM. For the same compound, the GI50 (M14 melanoma) was 192 nM, the TGI (M14 melanoma) was 409 nM and the GI50 (MALME-3M melanoma) was 83.3 nM. It also gave a TGI (MALME-3M melanoma) of 0.245 µM, a GI50 (MCF7 breast) of 63.8 nM and a TGI (MCF7 breast) of 310 nM. The GI50 (MDA-MB-231 breast) was 221 nM, the TGI (MDA-MB-231 breast) was 679 nM and the GI50 (MDA-MB-435) was 215 nM. It also gave a TGI (MDA-MB-435) of 478 nM, a GI50 (MOLT-4 leukemia) of 135 nM and a TGI (MOLT-4 leukemia) of 1190 nM. The GI50 (NCI-H226 lung) was 854 nM, the TGI (NCI-H226 lung) was 2950 nM and the GI50 (NCI-H23 lung) was 263 nM. For the same compound, the TGI (NCI-H23 lung) was 834 nM, the GI50 (NCI-H460 lung) was 355 nM and the TGI (NCI-H460 lung) was 1350 nM. For the same compound, the GI50 (NCI-H522 lung) was 32.3 nM, the TGI (NCI-H522 lung) was 116 nM and the GI50 (NCI/ADR-RES ovarian) was 310 nM. It also gave a TGI (NCI/ADR-RES ovarian) of 1340 nM, a GI50 (OVCAR-3 ovarian) of 111 nM and a TGI (OVCAR-3 ovarian) of 276 nM. For the same compound, the GI50 (OVCAR-4 ovarian) was 173 nM, the TGI (OVCAR-4 ovarian) was 343 nM and the GI50 (OVCAR-5 ovarian) was 325 nM. For the same compound, the TGI (OVCAR-5 ovarian) was 997 nM, the GI50 (OVCAR-8 ovarian) was 307 nM and the TGI (OVCAR-8 ovarian) was 3.49 µM. For the same compound, the GI50 (PC-3 prostate) was 296 nM, the TGI (PC-3 prostate) was 888 nM and the GI50 (RPMI-8226 leukemia) was 227 nM. For the same compound, the TGI (RPMI-8226 leukemia) was 713 nM, the GI50 (RXF 393 renal) was 95.4 nM and the TGI (RXF 393 renal) was 270 nM. It also gave a GI50 (SF-268 CNS) of 274 nM, a TGI (SF-268 CNS) of 938 nM and a GI50 (SF-295 CNS) of 1410 nM. It also gave a TGI (SF-295 CNS) of 3.52 µM, a GI50 (SF-539 CNS) of 214 nM and a TGI (SF-539 CNS) of 524 nM. The GI50 (SK-MEL-2 melanoma) was 299 nM, the TGI (SK-MEL-2 melanoma) was 990 nM and the GI50 (SK-MEL-28 melanoma) was 246 nM. The TGI (SK-MEL-28 melanoma) was 611 nM, the GI50 (SK-MEL-5 melanoma) was 267 nM and the TGI (SK-MEL-5 melanoma) was 717 nM. For the same compound, the GI50 (SK-OV-3 ovarian) was 2240 nM, the TGI (SK-OV-3 ovarian) was 8.65 µM and the GI50 (SN12C renal) was 165 nM. For the same compound, the TGI (SN12C renal) was 355 nM, the GI50 (SNB-19 CNS) was 465 nM and the TGI (SNB-19 CNS) was 1670 nM. The GI50 (SNB-75 CNS) was 348 nM, the TGI (SNB-75 CNS) was 1800 nM and the GI50 (SW-620 colon) was 72.8 nM. The TGI (SW-620 colon) was 328 nM, the GI50 (T-47D breast) was 176 nM and the TGI (T-47D breast) was 577 nM. The GI50 (TK-10 renal) was 248 nM, the TGI (TK-10 renal) was 632 nM and the GI50 (U251 CNS) was 284 nM. It also gave a TGI (U251 CNS) of 820 nM, a GI50 (UACC-257 melanoma) of 277 nM and a TGI (UACC-257 melanoma) of 791 nM. For the same compound, the GI50 (UACC-62 melanoma) was 210 nM, the TGI (UACC-62 melanoma) was 498 nM and the GI50 (UO-31 renal) was 97.1 nM. For the same compound, the TGI (UO-31 renal) was 304 nM.
Work on `COc1ccc2c(c1)nc1n2C(c2c(Cl)cccc2Cl)SC1` (centres undefined) yielded a TGI (786-0 renal) of over 100000 nM, a TGI (A498 renal) of over 100 µM and a TGI (A549 NSCLC) of over 100 µM. For the same compound, the TGI (ACHN renal) was over 100000 nM, the TGI (BT-549 breast) was over 100000 nM and the TGI (CAKI-1 renal) was over 100 µM. For the same compound, the TGI (CCRF-CEM leukemia) was over 100000 nM, the TGI (COLO 205 colon) was over 100000 nM and the TGI (DU-145 prostate) was over 100000 nM. The TGI (EKVX NSCLC) was over 100000 nM, the TGI (HCC-2998 colon) was over 86800 nM and the TGI (HCT-116 colon) was over 81200 nM. For the same compound, the TGI (HCT-15 colon) was over 100000 nM, the TGI (HL-60(TB) leukemia) was over 22700 nM and the TGI (HOP-62 NSCLC) was over 71000 nM. The TGI (HOP-92 NSCLC) was over 100000 nM, the TGI (HS 578T breast) was 49.4 µM and the TGI (HT29 colon) was 85.9 µM. The TGI (IGROV1 ovarian) was over 100000 nM, the TGI (K-562 leukemia) was over 100 µM and the TGI (KM12 colon) was over 100000 nM. It also gave a TGI (LOX IMVI melanoma) of over 100000 nM, a TGI (M14 melanoma) of over 43700 nM and a TGI (MALME-3M melanoma) of 14.5 µM. It also gave a TGI (MCF7 breast) of over 37500 nM, a TGI (MDA-MB-231 breast) of over 100000 nM and a TGI (MDA-MB-435) of over 23600 nM. The TGI (MOLT-4 leukemia) was over 100000 nM, the TGI (NCI-H226 lung) was over 100000 nM and the TGI (NCI-H23 lung) was over 100000 nM. For the same compound, the TGI (NCI-H460 lung) was over 100000 nM, the TGI (NCI/ADR-RES ovarian) was over 52500 nM and the TGI (OVCAR-3 ovarian) was over 93000 nM. The TGI (OVCAR-4 ovarian) was over 100000 nM, the TGI (OVCAR-5 ovarian) was over 100000 nM and the TGI (OVCAR-8 ovarian) was over 100 µM. The TGI (PC-3 prostate) was over 82300 nM, the TGI (RPMI-8226 leukemia) was over 100000 nM and the TGI (RXF 393 renal) was over 70300 nM. The TGI (SF-268 CNS) was over 100000 nM, the TGI (SF-295 CNS) was over 70.4 µM and the TGI (SF-539 CNS) was over 100000 nM. It also gave a TGI (SK-MEL-2 melanoma) of over 74000 nM, a TGI (SK-MEL-28 melanoma) of over 100000 nM and a TGI (SK-MEL-5 melanoma) of over 100000 nM. The TGI (SK-OV-3 ovarian) was over 100 µM, the TGI (SN12C renal) was over 100000 nM and the TGI (SNB-19 CNS) was over 92700 nM. For the same compound, the TGI (SNB-75 CNS) was over 75100 nM, the TGI (SR leukemia) was over 100 µM and the TGI (SW-620 colon) was over 53800 nM. For the same compound, the TGI (T-47D breast) was over 72300 nM, the TGI (TK-10 renal) was over 100000 nM and the TGI (U251 CNS) was over 65500 nM. It also gave a TGI (UACC-257 melanoma) of over 100000 nM, a TGI (UACC-62 melanoma) of over 100000 nM and a TGI (UO-31 renal) of over 100000 nM.
